Test results reported in the supplement of paper PMC10307832.

Experiments:
Assay in all cases: relative viability (nuclei count vs DMSO), 5 days (fraction); higher = more cells survive
[1] = test system: ABC-1
In short: (§1)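 The day after seeding in 1536-well plates, lung cancer cell lines were treated by pin tool with a single drug, or with a fixed anchor-drug dose together with five library-drug doses (not always all listed) in √10 steps. After 5 days, a combined fix-and-stain solution (final 0.05% Triton X-100, 1% formaldehyde, 1 ug/ml Hoechst) was added. Nuclei counted on 4× images gave relative viability as treated counts over vehicle counts, reported as the median of duplicate plates.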

[2] = test system: CAL-12T
In short: as §1

[3] = test system: ChaGo-K-1
In short: as §1

[4] = test system: EPLC-272H
In short: as §1

[5] = test system: HCC-366
In short: as §1

[6] = test system: HCC-78
In short: as §1

[7] = test system: LC-2-ad
In short: as §1

[8] = test system: LOU-NH91
In short: as §1

[9] = test system: LU99A
In short: as §1

[10] = test system: NCI-H1651
In short: as §1

[11] = test system: NCI-H1734
In short: as §1

[12] = test system: NCI-H1755
In short: as §1

[13] = test system: NCI-H2087
In short: as §1

[14] = test system: NCI-H2228
In short: as §1

[15] = test system: NCI-H2405
In short: as §1

[16] = test system: NCI-H3122
In short: as §1

[17] = test system: NCI-H460
In short: as §1

[18] = test system: PC-3 [JPC-3]
In short: as §1

[19] = test system: RERF-LC-KJ
In short: as §1

[20] = test system: UMC-11
In short: as §1

C[C@@H]1CN(CC(=O)Nc2ccc3c(c2)Cc2cccc(-c4cc(=O)cc(N5CCOCC5)o4)c2S3)C[C@H](C)O1 + CC(C)C[C@H](NC(=O)[C@H](Cc1ccccc1)NC(=O)c1cnccn1)B(O)O [Bortezomib] (partner 0.002 µM)
relative viability ([1]; first compound 0.1265 µM): 0.3 | relative viability ([1]; first compound 0.4 µM): 0.304 | relative viability ([1]; first compound 4 µM): 0.265 | relative viability ([2]; first compound 0.04 µM): 1.06 | relative viability ([2]; first compound 0.1265 µM): 0.954 | relative viability ([2]; first compound 0.4 µM): 1.06 | relative viability ([2]; first compound 4 µM): 0.796 | relative viability ([3]; first compound 0.1265 µM): 1.02 | relative viability ([3]; first compound 0.4 µM): 0.936 | relative viability ([3]; first compound 4 µM): 0.87 | relative viability ([4]; first compound 0.04 µM): 0.925 | relative viability ([4]; first compound 0.1265 µM): 0.894 | relative viability ([4]; first compound 0.4 µM): 1.03 | relative viability ([4]; first compound 4 µM): 0.993 | relative viability ([5]; first compound 0.04 µM): 0.999 | relative viability ([5]; first compound 0.1265 µM): 1.04 | relative viability ([5]; first compound 0.4 µM): 1.24 | relative viability ([5]; first compound 4 µM): 0.978 | relative viability ([6]; first compound 0.04 µM): 0.404 | relative viability ([6]; first compound 0.1265 µM): 0.484 | relative viability ([6]; first compound 0.4 µM): 0.431 | relative viability ([6]; first compound 4 µM): 0.432 | relative viability ([7]; first compound 0.04 µM): 1.09 | relative viability ([7]; first compound 0.1265 µM): 0.981 | relative viability ([7]; first compound 0.4 µM): 0.936 | relative viability ([7]; first compound 4 µM): 0.847 | relative viability ([8]; first compound 0.04 µM): 0.495 | relative viability ([8]; first compound 0.1265 µM): 0.446 | relative viability ([8]; first compound 0.4 µM): 0.428 | relative viability ([8]; first compound 4 µM): 0.527 | relative viability ([9]; first compound 0.04 µM): 1.11 | relative viability ([9]; first compound 0.1265 µM): 1.15 | relative viability ([9]; first compound 0.4 µM): 1.11 | relative viability ([9]; first compound 4 µM): 1.1 | relative viability ([10]; first compound 0.04 µM): 0.848 | relative viability ([10]; first compound 0.1265 µM): 0.866 | relative viability ([10]; first compound 0.4 µM): 0.922 | relative viability ([10]; first compound 4 µM): 0.976 | relative viability ([11]; first compound 0.04 µM): 1.07 | relative viability ([11]; first compound 0.1265 µM): 1.04 | relative viability ([11]; first compound 0.4 µM): 0.927 | relative viability ([11]; first compound 4 µM): 1.1 | relative viability ([12]; first compound 0.04 µM): 1.05 | relative viability ([12]; first compound 0.1265 µM): 1.01 | relative viability ([12]; first compound 0.4 µM): 0.948 | relative viability ([12]; first compound 4 µM): 0.942 | relative viability ([13]; first compound 0.04 µM): 0.751 | relative viability ([13]; first compound 0.1265 µM): 0.808 | relative viability ([13]; first compound 0.4 µM): 0.948 | relative viability ([13]; first compound 4 µM): 0.652 | relative viability ([14]; first compound 0.04 µM): 0.932 | relative viability ([14]; first compound 0.1265 µM): 0.877 | relative viability ([14]; first compound 0.4 µM): 0.821 | relative viability ([14]; first compound 4 µM): 0.523 | relative viability ([15]; first compound 0.04 µM): 0.984 | relative viability ([15]; first compound 0.1265 µM): 0.995 | relative viability ([15]; first compound 0.4 µM): 0.978 | relative viability ([15]; first compound 4 µM): 0.994 | relative viability ([16]; first compound 0.04 µM): 1.06 | relative viability ([16]; first compound 0.1265 µM): 0.977 | relative viability ([16]; first compound 0.4 µM): 1.02 | relative viability ([16]; first compound 4 µM): 0.969 | relative viability ([17]; first compound 0.04 µM): 1.13 | relative viability ([17]; first compound 0.1265 µM): 1.05 | relative viability ([17]; first compound 0.4 µM): 1.24 | relative viability ([17]; first compound 4 µM): 0.759 | relative viability ([18]; first compound 0.04 µM): 0.861 | relative viability ([18]; first compound 0.1265 µM): 0.771 | relative viability ([18]; first compound 0.4 µM): 0.908 | relative viability ([18]; first compound 4 µM): 0.677 | relative viability ([19]; first compound 0.04 µM): 1.24 | relative viability ([19]; first compound 0.1265 µM): 1.17 | relative viability ([19]; first compound 0.4 µM): 1.07 | relative viability ([19]; first compound 4 µM): 0.998 | relative viability ([20]; first compound 0.04 µM): 0.778 | relative viability ([20]; first compound 0.1265 µM): 0.693 | relative viability ([20]; first compound 0.4 µM): 0.919 | relative viability ([20]; first compound 4 µM): 0.543

Clc1ccc(Nc2nnc(Cc3ccncc3)c3ccccc23)cc1 [Vatalanib] + CC(C)C[C@H](NC(=O)[C@H](Cc1ccccc1)NC(=O)c1cnccn1)B(O)O [Bortezomib] (partner 0.002 µM)
relative viability ([1]; first compound 0.04 µM): 0.334 | relative viability ([1]; first compound 0.1265 µM): 0.243 | relative viability ([1]; first compound 0.4 µM): 0.348 | relative viability ([1]; first compound 1.265 µM): 0.357 | relative viability ([1]; first compound 4 µM): 0.351 | relative viability ([2]; first compound 0.04 µM): 0.933 | relative viability ([2]; first compound 0.1265 µM): 0.774 | relative viability ([2]; first compound 1.265 µM): 0.988 | relative viability ([2]; first compound 4 µM): 1.05 | relative viability ([3]; first compound 0.04 µM): 0.936 | relative viability ([3]; first compound 0.1265 µM): 0.938 | relative viability ([3]; first compound 1.265 µM): 0.991 | relative viability ([3]; first compound 4 µM): 1.03 | relative viability ([4]; first compound 0.04 µM): 1.08 | relative viability ([4]; first compound 0.1265 µM): 0.93 | relative viability ([4]; first compound 0.4 µM): 0.843 | relative viability ([4]; first compound 1.265 µM): 0.971 | relative viability ([4]; first compound 4 µM): 0.982 | relative viability ([5]; first compound 0.04 µM): 1.09 | relative viability ([5]; first compound 0.1265 µM): 0.924 | relative viability ([5]; first compound 0.4 µM): 1.03 | relative viability ([5]; first compound 1.265 µM): 1.06 | relative viability ([5]; first compound 4 µM): 1.05 | relative viability ([6]; first compound 0.04 µM): 0.391 | relative viability ([6]; first compound 0.1265 µM): 0.493 | relative viability ([6]; first compound 0.4 µM): 0.474 | relative viability ([6]; first compound 1.265 µM): 0.495 | relative viability ([6]; first compound 4 µM): 0.571 | relative viability ([7]; first compound 0.04 µM): 0.987 | relative viability ([7]; first compound 0.1265 µM): 1.01 | relative viability ([7]; first compound 0.4 µM): 1.17 | relative viability ([7]; first compound 1.265 µM): 1 | relative viability ([7]; first compound 4 µM): 0.952 | relative viability ([8]; first compound 0.04 µM): 0.491 | relative viability ([8]; first compound 0.1265 µM): 0.43 | relative viability ([8]; first compound 0.4 µM): 0.464 | relative viability ([8]; first compound 1.265 µM): 0.493 | relative viability ([8]; first compound 4 µM): 0.468 | relative viability ([9]; first compound 0.04 µM): 1.19 | relative viability ([9]; first compound 0.1265 µM): 1.16 | relative viability ([9]; first compound 0.4 µM): 1.27 | relative viability ([9]; first compound 1.265 µM): 1.22 | relative viability ([9]; first compound 4 µM): 1.19 | relative viability ([10]; first compound 0.04 µM): 0.906 | relative viability ([10]; first compound 0.1265 µM): 0.917 | relative viability ([10]; first compound 0.4 µM): 0.959 | relative viability ([10]; first compound 1.265 µM): 0.941 | relative viability ([10]; first compound 4 µM): 0.969 | relative viability ([11]; first compound 0.04 µM): 1.02 | relative viability ([11]; first compound 0.1265 µM): 1.04 | relative viability ([11]; first compound 0.4 µM): 1.15 | relative viability ([11]; first compound 1.265 µM): 0.827 | relative viability ([11]; first compound 4 µM): 0.893 | relative viability ([12]; first compound 0.04 µM): 0.938 | relative viability ([12]; first compound 0.1265 µM): 0.926 | relative viability ([12]; first compound 0.4 µM): 0.992 | relative viability ([12]; first compound 1.265 µM): 0.88 | relative viability ([12]; first compound 4 µM): 0.974 | relative viability ([13]; first compound 0.04 µM): 1.05 | relative viability ([13]; first compound 0.1265 µM): 0.744 | relative viability ([13]; first compound 0.4 µM): 0.92 | relative viability ([13]; first compound 1.265 µM): 0.917 | relative viability ([13]; first compound 4 µM): 0.753 | relative viability ([14]; first compound 0.04 µM): 0.865 | relative viability ([14]; first compound 0.1265 µM): 0.803 | relative viability ([14]; first compound 0.4 µM): 0.94 | relative viability ([14]; first compound 1.265 µM): 0.951 | relative viability ([14]; first compound 4 µM): 1.11 | relative viability ([15]; first compound 0.04 µM): 1 | relative viability ([15]; first compound 0.1265 µM): 1.03 | relative viability ([15]; first compound 0.4 µM): 0.76 | relative viability ([15]; first compound 1.265 µM): 0.957 | relative viability ([15]; first compound 4 µM): 0.939 | relative viability ([16]; first compound 0.04 µM): 1.01 | relative viability ([16]; first compound 0.1265 µM): 1.06 | relative viability ([16]; first compound 0.4 µM): 1.08 | relative viability ([16]; first compound 1.265 µM): 1.07 | relative viability ([16]; first compound 4 µM): 1.01 | relative viability ([17]; first compound 0.04 µM): 1.07 | relative viability ([17]; first compound 0.1265 µM): 0.919 | relative viability ([17]; first compound 0.4 µM): 1.03 | relative viability ([17]; first compound 1.265 µM): 1.03 | relative viability ([17]; first compound 4 µM): 1.02 | relative viability ([18]; first compound 0.04 µM): 0.785 | relative viability ([18]; first compound 0.1265 µM): 0.828 | relative viability ([18]; first compound 0.4 µM): 0.82 | relative viability ([18]; first compound 1.265 µM): 0.856 | relative viability ([18]; first compound 4 µM): 0.721 | relative viability ([19]; first compound 0.04 µM): 1.05 | relative viability ([19]; first compound 0.1265 µM): 1.1 | relative viability ([19]; first compound 0.4 µM): 0.958 | relative viability ([19]; first compound 1.265 µM): 0.904 | relative viability ([19]; first compound 4 µM): 0.969 | relative viability ([20]; first compound 0.04 µM): 0.802 | relative viability ([20]; first compound 0.1265 µM): 0.771 | relative viability ([20]; first compound 0.4 µM): 0.709 | relative viability ([20]; first compound 1.265 µM): 0.717 | relative viability ([20]; first compound 4 µM): 0.688
